Results as given in patent publication US20180200233A1, “COMPOSITIONS FOR PREVENTING CANCERS ASSOCIATED WITH HUMAN PAPILLOMA VIRUSES” (Loma Linda University, priority 2015, published 2018).

B1: TRAIL: tumor necrosis factor-related apoptosis-inducing ligand; extracellular domain of human TRAIL, His-tagged, expressed in E. coli (protein, UniProt P50591 39-281, looked up)
extracellular domain: TNELKQMQDKYSKSGIACFLKEDDSYWDPNDEESMNSPCWQVKWQLRQLVRKMILRTSEETISTVQEKQQNISPLVRERGPQRVAAHITGTRGRSNTLSSPNSKNEKALGRKINSWESSRSGHSFLSNLHLRNGELVIHEKGFYYIYSQTYFRFQEEIKENTKNDKQMVQYIYKYTSYPDPILLMKSARNSCWSKDAEYGLYSIYQGGIFELKENDRIFVSVTNEHLIDMDHEASFFGAFLVG
modifications: extracellular domain His tag
notes: tumor necrosis factor-related apoptosis-inducing ligand; extracellular domain of human TRAIL, His-tagged, expressed in E. coli

How the values were obtained:
[1] = target: T1, GST-E6/His-E6AP (Human papillomavirus type 16, UniProt P03126); assay: AlphaScreen bead-based assay, GST-E6/His-E6AP binding; parameters: species or system HPV 16; settings: for inhibition of E6/E6AP interaction (in words): FIG. 2B
T1 construct: made in house
Procedure: (§1) FIGS. 2A-C are graphs providing data regarding inhibition of protein-protein interactions by 3-(1H-indol-1yl)propan-1-amine (1), three benzimidazole derivatives (2-4), and spinacine (5). Compounds, at the indicated concentrations (1.4 μM to 3.2 mM) were tested using a bead-based screening assay for their ability to inhibit three different protein/protein interactions: (FIG. 2A) GST-E6/His-caspase 8; (FIG. 2B) GST-E6/HisE6AP; and (FIG. 2C) GST-caspase 8/His-caspase 8. Binding in the presence of 1.4 μM of the test compound was set at 100%. Experiments were performed in triplicate, and error bars indicate the standard deviation.
(§2) To determine the dose-responsiveness of these five compounds, variable concentrations of those small molecules were first tested for their ability to inhibit E6/caspase binding. […] These molecules, which had been selected for their ability to interfere with E6/caspase 8 binding, were then tested to determine if they could also affect other interactions of E6, such as its binding to E6-associated protein (E6AP). The E6/E6AP interaction is required for the E6-mediated acceleration of p53 degradation (Huibregtse, J. M., M. Scheffner, and P. M. Howley, A cellular protein mediates association of p53 with the E6 oncoprotein of human papillomavirus types 16 or 18. The EMBO journal, 1991. 10(13): p. 4129-35).
(§3) Alpha-Screen™ technology was used to assess the interactions between GST-E6, GST-caspase 8, His-E6AP, and His-caspase 8. Binding assays were performed in white 384-well plates (Perkin-Elmer) in a total volume of 25 μl as previously described (Tungteakkhun, S. S., et al., The interaction between human papillomavirus type 16 and FADD is mediated by a novel E6 binding domain. Journal of virology, 2008. 82(19): p. 9600-14). Briefly, 5 μl (50 ng) of GST-E6 and 5 μl (87.5 ng) of His-caspase 8 were included in each reaction mixture with 5 μl blocking buffer (0.5 mg BSA, 0.5% Tween 20 in PBS) in the absence or presence of 10 μM of each test chemical. Members of the library were present at M in DMSO. After a one-hour incubation of the mixture at room temperature, 5 μl donor beads and 5 μl acceptor beads (Perkin-Elmer) were added to each well according to the manufacturer's protocol. The mixture was incubated in the dark at room temperature overnight, and the emitted signal was detected using the Envision Multilabel plate reader (Perkin-Elmer). In the presence of test chemicals, the binding affinity was calculated as a percentage of the binding in the presence of carrier only (DMSO).

[2] = target: T2, GST-E6/His-caspase 8 (Human papillomavirus type 16, UniProt P03126); assay: AlphaScreen bead-based assay, GST-E6/His-caspase 8 binding; parameters: species or system HPV 16; settings: for inhibition of E6/caspase 8 binding (in words): FIG. 2A, primary screen at 10 μM
T2 construct: made in house
Procedure: as §1
HPV E6 binds to caspase 8 (Garnett, T. O., M. Filippova, and P. J. Duerksen-Hughes, Accelerated degradation of FADD and procaspase 8 in cells expressing human papilloma virus 16 E6 impairs TRAIL-mediated apoptosis. Cell death and differentiation, 2006. 13(11): p. 1915-26), and myricetin can block the E6/caspase 8 interaction in vitro (Yuan, C. H., et al., Small molecule inhibitors of the HPV16-E6 interaction with caspase 8. Bioorganic & medicinal chemistry letters, 2012. 22(5): p. 2125-9). A bead-based assay based on AlphaScreen™ technology (Perkin-Elmer) is used to identify inhibitors of the E6/caspase 8 interaction (Yuan, C. H., et al., Small molecule inhibitors of the HPV16-E6 interaction with caspase 8. Bioorganic & medicinal chemistry letters, 2012. 22(5): p. 2125-9). The ActiProbe 2K (2,000 compounds) library was screened using the same approach. […] Analysis of the structures and physical/chemical characteristics of those molecules led to the selection of five additional compounds: 3-(1H-indol-1-yl)propan-1-amine methanesulfonate (1), benzimidazole (2), 1H-benzimidazole-1-methanol (3), 2-(methoxymethyl)-1H-benzimidazole (4), and spinacine (5) for further study (FIG. 1).
as §2
as §3, with “Members of the library were present at M in DMSO. After a one-hour incubation of the mixture at room temperature, 5 μl donor beads and 5 μl acceptor beads (Perkin-Elmer) were added to each well according to the manufacturer's protocol.” left out

[3] = target: T3, GST-caspase 8/His-caspase 8 (Homo sapiens, UniProt Q14790); assay: AlphaScreen counter-screen, GST-caspase 8/His-caspase 8 binding; settings: for inhibition of caspase 8/caspase 8 interaction (in words): FIG. 2C
T3 construct: pTriEx-Caspase-8 DED plasmids; fused on or other part: GST tag on one copy, His tag on the other (AlphaScreen bead handles)
Procedure: as §1
To ask whether this inhibition was specific, a counter-screening assay was employed the ability of candidates to inhibit the binding of GST-caspase 8 to His-caspase 8 was assessed; those that did were to be eliminated. In this counter-screening assay, the materials in each well were the same as in the primary screen, with the exception that GST-caspase 8 replaced GST-E6.
as §3

[4] = tested on: SiHa cells; assay: MTT cell viability, SiHa cells, TRAIL-induced apoptosis; type: cell-based, human; settings: SiHa cells in comparison to U2OS cells; with cycloheximide 5 μg/ml, FIG. 3A
Procedure: FIGS. 3A-E are graphs providing data regarding resistance of HPV^+ SiHa cells to TRAIL-, cisplatin- and […] apoptosis, in the presence and absence of small molecules as disclosed herein. (FIG. 3A) HPV^+ SiHa cells are resistant to TRAIL-induced apoptosis as compared to the human osteosarcoma cell line U2OS. Cells (2×10^4 cells per well) were seeded into a 96-well plate, allowed to incubate overnight, and then treated with indicated concentration of TRAIL in the presence of cycloheximide (5 μg/ml). The viability of cells was measured after overnight incubation using the MTT assay; the viability of cells untreated with TRAIL was set at 100% for each group. (FIG. 3B) The indicated concentrations of three small molecules were added to SiHa cells, and an MTT assay was preformed after overnight incubation. The viability of cells untreated with small molecules was set as 100%. (FIG. 3C) The indicated concentrations of myricetin or spinacine were added 4 h prior to TRAIL (100 ng/ml) in the presence of cycloheximide (5 μg/ml) and incubated at 37° C. overnight. The viability of cells untreated with small molecules was set at 100%. (FIG. 3D and FIG. 3E) SiHa cells (2×10^4 cells per well) were seeded into a 96-well plate and allowed to incubate overnight. 100 μM of myricetin and 50 μM of spinacine were added 4 h prior to either (FIG. 3D) doxorubicin or (FIG. 3E) cisplatin. Cell viability was measured after overnight incubation using the MTT assay, and the viability of cells untreated with either myricetin or spinacine was set at 100%. Experiments were performed in triplicate, and error bars indicate the standard deviation.
FIGS. 5A-B are graphs showing myricetin and spinacine (5) re-sensitized HPV^+, but not HPV^−, cells to treatment with TRAIL. SiHa (2×10^4 cells per well) and C33A cells (1×10^4 cells per well) were seeded into a 96-well plate and allowed to incubate overnight, then cells were pre-treated in the presence or absence of myricetin (100 μM) (FIG. 5A) or spinacine (50 μM) (FIG. 5B) for 4 h. The indicated concentration of TRAIL, along with cycloheximide (5 μg/ml) was added and cells were allowed to incubate overnight. Cell viability was measured by MTT assay, and the viability of cells untreated with TRAIL was set at 100%. Experiments were performed in triplicate, and error bars indicate the standard deviation.
The molecules were then tested to determine whether those that block E6/caspase 8 binding in vitro could also act in the context of a cell. SiHa cells are an HPV^+ cell line, derived from a cervical carcinoma, which serves as a commonly used model for HPV-associated malignancies. To determine whether HPV^+ SiHa cells are resistant to TRAIL-induced apoptosis, SiHa cells were treated with TRAIL and cell viability was assessed. TRAIL-sensitive, HPV^− U2OS cells served as a positive control. […] Myricetin and/or spinacine were tested to determine if they could sensitize these HPV^+ cells to TRAIL-induced apoptosis. […] Table 2 lists and compares the concentrations of the three tested compounds required to induce death in 50% of SiHa cells in the presence or absence of TRAIL.
The extracellular domain of human TRAIL was cloned into a pTriEx expression plasmid containing N-terminal Hisx6 tag. His-TRAIL was expressed in the E. coli BL-21 pLys strain and purified as previously described. Doxorubicin and cisplatin were purchased from Sigma. His-TRAIL, doxorubicin, and cisplatin were diluted in PBS to the desired concentration before using. To measure cell survival following treatment with TRAIL, cisplatin and doxorubicin, SiHa (2×10^4/well), C33A (1×10^4/well), and HNSCC cells (2×10^4/well) were seeded into 96-well plates and allowed to adhere overnight. Small molecules at the desired concentration were added and incubated at 37° C. for 4 h. As indicated, TRAIL, cisplatin or doxorubicin was then added. […]

[5] = tested on: UPCI-SCC90-UP-Clone 35 (#90) cells; assay: MTT cell viability, HPV+ HNSCC cell line #90 with TRAIL; type: cell-based; settings: all selected cell lines; TRAIL as high as 100 ng/ml, FIG. 7A
Procedure: FIGS. 7A-E are graphs showing myricetin and spinacine (5) re-sensitized HPV^+, but not HPV^−, head and neck cancer cell lines to treatment with TRAIL. (FIG. 7A) Both HPV^− and HPV^+ HN cancer cell lines display resistance to TRAIL treatment. HPV^− (#84) (Myricetin—FIG. 7B; Spinacine—FIG. 7C) and HPV^+ (#90) (FIG. 7D; Spinacine—FIG. 7E) head and neck cancer cell lines (2×10^4 cells per well) were seeded into 96-well plates and allowed to incubate overnight, then cells were pre-treated with myricetin (0-200 μM) or spinacine (0-100 μM) for 4 h. […] of TRAIL, along with cycloheximide (5 μg/ml) was added and cells were allowed to incubate overnight. Cell viability was measured by the MTT assay, and the viability of cells untreated with small molecules was set at 100%. Experiments were performed in triplicate, and error bars indicate the standard deviation.
As shown above, myricetin and spinacine sensitize SiHa cells to TRAIL and chemotherapy drugs. […] Other types of HPV^+ cancer cells were examined, and in particular, head and neck squamous cell carcinoma (HNSCC) cells can also be sensitized in this manner. […] For the combination experiments, 50 ng/ml TRAIL was applied in combination with either myricetin (0-200 μM) or spinacine (0-100 μM). […] In contrast […], TRAIL-induced cell death was enhanced 30% in UPCI-SCC90-UP-Clone 35, #90. Furthermore, 40 μM spinacine was able to enhance TRAIL-induced cell death in the HPV^+ #90 cell lines up to 50%.
The extracellular domain of human TRAIL was cloned into a pTriEx expression plasmid containing N-terminal Hisx6 tag. His-TRAIL was expressed in the E. coli BL-21 pLys strain and purified as previously described. Doxorubicin and cisplatin were purchased from Sigma. His-TRAIL, doxorubicin, and cisplatin were diluted in PBS to the desired concentration before using. […] All experiments were repeated at least three times (three biological replicates, carried out on different days), with each experimental group measured in triplicate within each of these individual experiments. […]

[6] = bead-based assay, compounds tested 1.4 μM to 3.2 mM

T1 sequence (P03126 whole entry): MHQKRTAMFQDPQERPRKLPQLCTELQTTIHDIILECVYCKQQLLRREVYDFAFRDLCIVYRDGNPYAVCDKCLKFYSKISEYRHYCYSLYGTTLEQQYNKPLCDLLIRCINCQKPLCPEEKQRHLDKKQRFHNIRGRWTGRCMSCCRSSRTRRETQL
T2 sequence (P03126 whole entry): as above
T3 sequence (Q14790 whole entry, the tested form may be a part): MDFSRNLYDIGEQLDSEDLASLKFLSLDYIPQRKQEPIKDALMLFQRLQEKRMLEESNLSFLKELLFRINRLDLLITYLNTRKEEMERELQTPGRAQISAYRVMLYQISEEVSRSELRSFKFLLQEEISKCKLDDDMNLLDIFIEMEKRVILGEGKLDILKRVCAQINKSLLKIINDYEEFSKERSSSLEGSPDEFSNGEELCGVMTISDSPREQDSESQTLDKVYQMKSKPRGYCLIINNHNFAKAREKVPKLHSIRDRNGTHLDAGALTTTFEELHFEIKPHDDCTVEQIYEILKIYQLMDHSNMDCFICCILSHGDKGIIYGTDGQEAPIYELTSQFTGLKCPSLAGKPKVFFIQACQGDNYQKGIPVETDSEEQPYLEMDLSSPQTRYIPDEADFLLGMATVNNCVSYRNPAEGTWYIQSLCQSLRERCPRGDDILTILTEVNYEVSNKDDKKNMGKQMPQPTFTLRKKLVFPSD

Molecule | inhibition of E6/E6AP interaction (in words) [1] | inhibition of E6/caspase 8 binding (in words) [2] | inhibition of caspase 8/caspase 8 interaction (in words) [3] | further results
CS(=O)(=O)O.NCCCn1ccc2ccccc21 [Compound 1, 3-(1H-indol-1-yl)propan-1-amine methanesulfonate] | could also inhibit the E6/E6AP interaction | dose-dependent inhibition | able to inhibit the caspase 8/caspase 8 interaction | –
COCc1nc2ccccc2[nH]1 [Compound 4, 2-(methoxymethyl)-1H-benzimidazole] | – | – | – | EC50 for GST-E6/His-E6AP interaction [1, 6]: No inhibition; EC50 for GST-E6/His-caspase 8 interaction [2, 6]: No inhibition; EC50 for GST-caspase 8/His-caspase 8 interaction ([3]; compounds tested 1.4 μM to 3.2 mM): No inhibition
c1ccc2[nH]cnc2c1 [Compound 2, benzimidazole] | could also inhibit the E6/E6AP interaction | dose-dependent inhibition | able to inhibit the caspase 8/caspase 8 interaction | –
B1 | – | – | – | response of cells to TRAIL alone (in words) [4]: relatively resistant; response of HNSCC cell lines to TRAIL alone (in words) [5]: resistance
